Key:
Assay type in all cases: cell-based
[1] = test system: adipocytes differentiated from normal human subcutaneous preadipocytes; assay: Sugar uptake test in adipocytes (intracellular 2DG6P, Glucose Uptake-Glo); conditions: 100 μM acadesine (AICAR), 4 hours, No addition=100%
Description: Normal human subcutaneous preadipocytes were precultured using the growth medium in the same manner as in Example 1. The cells were detached using 0.25% trypsin-EDTA, seeded at 10,000 cells/100 μL/well to a 96-well plate using the growth medium, and cultured overnight in a CO2 incubator. On the next day, the medium was replaced with the differentiation medium (100 μL). The cells were cultured for 10 days in a CO2 incubator to induce their differentiation into adipocytes. On the fourth and seventh days after the differentiation induction, the medium was replaced with a fresh differentiation medium (100 μL). Next, the medium was replaced with 100 μLL of a serum-free medium (PBM-2 medium supplemented with 2 mM L-glutamine, 50 μg/mL gentamycin, and 37 ng/mL amphotericin-B, Cat. No. PT-8002, Lonza Group AG), and the cells were cultured for 18 hours in a CO2 incubator. Subsequently, the medium was replaced with 100 μL of a glucose-free serum-free medium (DMEM, no glucose, Cat. No. 11966025, Thermo Fisher Scientific Inc.) supplemented with varying concentrations of steviol (10, 30 or 100 μg/mL, dissolved in 0.1% DMSO (final concentration)), and the cells were cultured for 4 hours in a CO2 incubator. A glucose-free serum-free medium supplemented with 100 μM acadesine (AICAR, Cat. No. A9978, Sigma-Aldrich Co., LLC) was used as a positive control, and a vehicle control composed of a glucose-free serum-free medium supplemented with 0.1% DMSO (final concentration) and a no-addition control composed of only a glucose-free serum-free medium were used as negative controls. After culture, intracellular 2-deoxyglucose-6-phosphate (2DG6P, 2-deoxyglucose (2DG) phosphorylation product) level was measured by the following procedures using Glucose Uptake-Glo Assay kit (Cat. No. J1341, Promega Corp.). The medium of each well was replaced with a DPBS solution (50 μL) supplemented with 1 mM 2DG. After incubation at room temperature for 10 minutes, a stop buffer (25 μL), a neutralization buffer (25 μL), and a 2DG6P detection reagent (100 μL) were added thereto. After incubation at room temperature for 60 minutes, luminescence intensity was measured using a plate reader (VARIOSKAN FLASH, Thermo Fisher Scientific Inc.), and relative luminescence intensity was regarded as a relative intracellular 2DG6P level. Significant difference among the test groups to be compared (no-addition group vs positive control group, vehicle control group vs steviol addition group) was tested by the Student's t test. The two-tailed test was conducted, and P<0.05 was regarded as having significant difference.

[2] = test system: normal human subcutaneous preadipocytes differentiated into adipocytes; assay: Fat accumulation test in adipocytes (oil red staining); conditions: 25 mM LiCl, 10 days, DMSO=100%
Description: Normal human subcutaneous preadipocytes were precultured using the growth medium in the same manner as in Example 1. The cells were detached using 0.25% trypsin-EDTA, seeded at 10,000 cells/100 μL/well to a 96-well plate using a growth medium, and cultured overnight in a CO2 incubator. On the next day, the medium was replaced with 100 μL of a differentiation medium supplemented with varying concentrations of steviol (12.5, 25, 50, 100 or 200 μg/mL, dissolved in 0.1% DMSO (final concentration)). The cells were cultured for 10 days in a CO2 incubator to induce their differentiation into adipocytes. On the fourth and seventh days after the differentiation induction, the medium was replaced with a fresh medium (100 μL) having the same composition as above. A differentiation medium supplemented with 25 mM LiCl (Cat. No. SML0559, Sigma-Aldrich Co., LLC) was used as a positive control, and a differentiation medium supplemented with 0.1% DMSO (final concentration) was used as a negative control. Cells cultured in a growth medium were used as an untreated control (Untreated). The cells thus cultured were subjected to oil red staining. Specifically, the cells were washed twice with 100 μL of DPBS (Cat. No. 14190250, Thermo Fisher Scientific Inc.). Then, the cells were fixed (room temperature, 10 min) in 100 μL of a 10% formalin solution (Cat. No. 061-00416, FUJIFILM Wako Pure Chemical Corp.). The cells were washed twice with 100 μL of DPBS, then incubated for 1 minute in 100 μL of 60% 2-propanol (Cat. No. 166-04836, FUJIFILM Wako Pure Chemical Corp.) that replaced the medium, and stained for 15 minutes in 100 μL of an oil red staining solution (Cat. No. 00625, Sigma-Aldrich Co., LLC) that replaced the 2-propanol solution. The cells were washed once with 100 μL of 60% 2-propanol and washed twice with 100 μL of DPBS. Then, cell images were taken in 100 μL of DPBS. After subsequent replacement with 120 μL of 100% 2-propanol, oil red was extracted by incubation for 5 minutes, and 100 μL of the extracts was transferred to each well of a fresh 96-well plate. Absorbance (520 nm) was measured using a plate reader (VARIOSKAN FLASH, Thermo Fisher Scientific Inc.), and a relative fat accumulation level was calculated. Significant difference of differentiation non-induced group vs differentiation induced group (negative control group) was tested (two-tailed), and P<0.05 was regarded as having significant difference. Also, significant difference of negative control group vs steviol addition group/positive control group was tested (two-tailed) by the Dunnett test, and P<0.05 was regarded as having significant difference.

[3] = test system: adipocytes differentiated from normal human subcutaneous preadipocytes; assay: Lipolysis test in adipocytes (free glycerol in culture supernatant); conditions: 10 μM isoproterenol, 24 hours, No addition=100%
Description: Normal human subcutaneous preadipocytes were precultured using the growth medium in the same manner as in Example 1. The cells were detached using 0.25% trypsin-EDTA, seeded at 10,000 cells/100 μL/well to a 96-well plate using the growth medium, and cultured overnight in a CO2 incubator. On the next day, the medium was replaced with the differentiation medium (100 μL), and the cells were cultured for 10 days in a CO2 incubator to induce their differentiation into adipocytes. On the fourth and seventh days after the differentiation induction, the medium was replaced with a fresh differentiation medium (100 μL). Next, the medium was replaced with a differentiation medium supplemented with varying concentrations of steviol (10, 30 or 100 μg/mL, dissolved in 0.1% DMSO (final concentration)), and the cells were cultured for 24 hours in a CO2 incubator. Then, a free glycerol level in a culture supernatant was measured using Adipolysis Assay Kit (Cat. No. 10009381, Cayman Chemical Co.) according to the manufacturer's protocol. For the measurement, absorbance (540 nm) was measured using a plate reader (VARIOSKAN FLASH, Thermo Fisher Scientific Inc.), and a relative free glycerol concentration was calculated. A differentiation medium supplemented with 10 μM isoproterenol (ISP) was used as a positive control, and a vehicle control (DMSO) composed of a differentiation medium supplemented with 0.1% DMSO (final concentration) and a no-addition control composed of only the differentiation medium were used as negative controls. Significant difference among the test groups to be compared (no-addition group vs positive control group, vehicle control group vs steviol addition group) was tested by the Student's t test. The two-tailed test was conducted, and P<0.05 was regarded as having significant difference.

HepG2 cells [4] = assay: TG accumulation test in hepatocytes (Adipogenesis Assay Kit, oleic acid); conditions: 2 mM metformin, 0.2 mM oleic acid, 24 hours, DMSO=100%
Description: HepG2 cells were precultured using the growth medium in the same manner as in Example 5. The cells were detached using 0.25% trypsin-EDTA, seeded at 30,000 cells/100 μL/well to a 96-well plate using the growth medium, and cultured overnight in a CO2 incubator. On the next day, the medium was replaced with 100 μL of a test medium (DMEM (high glucose) supplemented with 0.2 mM oleic acid (Cat. No. 03008, Sigma-Aldrich), 10% FBS and 1% penicillin-streptomycin) supplemented with varying concentrations of steviol (12.5, 25, 50, 100 or 200 μg/mL, dissolved in 0.1% DMSO (final concentration)). The cells were cultured for 24 hours in a CO2 incubator. A test medium supplemented with 2 mM metformin (Cat. No. M2009, Tokyo Chemical Industry Co., Ltd.) was used as a positive control (Metformin), and a vehicle control composed of a test medium supplemented with 0.1% DMSO (final concentration) was used as a negative control (DMSO). Cells cultured in a test medium containing no oleic acid was used as an untreated control (Untreated). The cells thus cultured were subjected to oil red staining in the same manner as in Example 3, followed by photographing and calculation of a relative fat accumulation level. An intracellular triglyceride (TG) level in cells separately cultured under the same conditions as in the cells employed in the oil red staining was quantified using Adipogenesis Assay Kit (BioVision Inc.) according to the manufacturer's protocol. Absorbance (570 nm) was measured using a plate reader (VARIOSKAN FLASH, Thermo Fisher Scientific Inc.), and a relative TG level was calculated. Significant difference of untreated group vs fat accumulation induction group (negative control group) was tested (two-tailed) by the Student's t test as to the relative fat accumulation level and the relative TG level, and P<0.05 was regarded as having significant difference. Also, significant difference of negative control group vs steviol addition group/positive control group was tested (two-tailed) by the Dunnett test, and P<0.05 was regarded as having significant difference. The results of the fat accumulation test are shown in Table 6 and FIG. 6, and the results of the TG accumulation test are shown in Table 7 and FIG. 7.

HepG2 cells [5] = assay: Fat accumulation test in hepatocytes (oil red staining, oleic acid); conditions: 2 mM metformin, 0.2 mM oleic acid, 24 hours, DMSO=100%
Description: Normal human subcutaneous preadipocytes were precultured using the growth medium in the same manner as in Example 1. The cells were detached using 0.25% trypsin-EDTA, seeded at 10,000 cells/100 μL/well to a 96-well plate using a growth medium, and cultured overnight in a CO2 incubator. On the next day, the medium was replaced with 100 μL of a differentiation medium supplemented with varying concentrations of steviol (12.5, 25, 50, 100 or 200 μg/mL, dissolved in 0.1% DMSO (final concentration)). The cells were cultured for 10 days in a CO2 incubator to induce their differentiation into adipocytes. On the fourth and seventh days after the differentiation induction, the medium was replaced with a fresh medium (100 μL) having the same composition as above. A differentiation medium supplemented with 25 mM LiCl (Cat. No. SML0559, Sigma-Aldrich Co., LLC) was used as a positive control, and a differentiation medium supplemented with 0.1% DMSO (final concentration) was used as a negative control. Cells cultured in a growth medium were used as an untreated control (Untreated). The cells thus cultured were subjected to oil red staining. Specifically, the cells were washed twice with 100 μL of DPBS (Cat. No. 14190250, Thermo Fisher Scientific Inc.). Then, the cells were fixed (room temperature, 10 min) in 100 μL of a 10% formalin solution (Cat. No. 061-00416, FUJIFILM Wako Pure Chemical Corp.). The cells were washed twice with 100 μL of DPBS, then incubated for 1 minute in 100 μL of 60% 2-propanol (Cat. No. 166-04836, FUJIFILM Wako Pure Chemical Corp.) that replaced the medium, and stained for 15 minutes in 100 μL of an oil red staining solution (Cat. No. 00625, Sigma-Aldrich Co., LLC) that replaced the 2-propanol solution. The cells were washed once with 100 μL of 60% 2-propanol and washed twice with 100 μL of DPBS. Then, cell images were taken in 100 μL of DPBS. After subsequent replacement with 120 μL of 100% 2-propanol, oil red was extracted by incubation for 5 minutes, and 100 μL of the extracts was transferred to each well of a fresh 96-well plate. Absorbance (520 nm) was measured using a plate reader (VARIOSKAN FLASH, Thermo Fisher Scientific Inc.), and a relative fat accumulation level was calculated. Significant difference of differentiation non-induced group vs differentiation induced group (negative control group) was tested (two-tailed), and P<0.05 was regarded as having significant difference. Also, significant difference of negative control group vs steviol addition group/positive control group was tested (two-tailed) by the Dunnett test, and P<0.05 was regarded as having significant difference. […] HepG2 cells were precultured using the growth medium in the same manner as in Example 5. The cells were detached using 0.25% trypsin-EDTA, seeded at 30,000 cells/100 μL/well to a 96-well plate using the growth medium, and cultured overnight in a CO2 incubator. On the next day, the medium was replaced with 100 μL of a test medium (DMEM (high glucose) supplemented with 0.2 mM oleic acid (Cat. No. 03008, Sigma-Aldrich), 10% FBS and 1% penicillin-streptomycin) supplemented with varying concentrations of steviol (12.5, 25, 50, 100 or 200 μg/mL, dissolved in 0.1% DMSO (final concentration)). The cells were cultured for 24 hours in a CO2 incubator. A test medium supplemented with 2 mM metformin (Cat. No. M2009, Tokyo Chemical Industry Co., Ltd.) was used as a positive control (Metformin), and a vehicle control composed of a test medium supplemented with 0.1% DMSO (final concentration) was used as a negative control (DMSO). Cells cultured in a test medium containing no oleic acid was used as an untreated control (Untreated). The cells thus cultured were subjected to oil red staining in the same manner as in Example 3, followed by photographing and calculation of a relative fat accumulation level. […]

NC(=O)c1ncn([C@@H]2O[C@H](CO)[C@@H](O)[C@H]2O)c1N [AICAR, acadesine, reference compound]
Relative luminescence intensity (%) (relative intracellular 2DG6P level) [1]: 194.9%

[Cl-].[Li+] [LiCl, reference compound]
Relative fat accumulation level (%) [2]: 56.3%

CC(C)NCC(O)c1ccc(O)c(O)c1 (centres unmarked) [ISP, isoproterenol, reference compound]
Relative lipolysis level (%) [3]: 184.4%

CN(C)C(=N)N=C(N)N [Metformin, metformin, reference compound]
Relative TG level (%) (HepG2 cells [4]): 76.0%
Relative fat accumulation level (%) (HepG2 cells [5]): 79.4%

Source: patent US20230057359A1, “NOVEL USE OF STEVIOL” (SUNTORY HOLDINGS LIMITED, priority 2019, published 2023)
